According to patent US8927717B1, “Thiochromeno[2,3-c]quinolin-12-one derivatives, preparation method and application thereof” (National Defense Medical Center, priority 2014, dated 2015):

Tests used:
Format in all cases: cell-based
[1] = tested on: CCRF-CEM; details: CCRF-CEM
[2] = tested on: K-562; details: K-562
[3] = tested on: MOLT-4; details: MOLT-4
[4] = tested on: RPMI-8226; details: RPMI-8226
[5] = tested on: SR; details: SR
[6] = tested on: A549/ATCC; details: A549/ATCC
[7] = tested on: NCI-H226; details: NCI-H226
[8] = tested on: NCI-H23; details: NCI-H23
[9] = tested on: NCI-H522; details: NCI-H522
[10] = tested on: HCT-116; details: HCT-116
[11] = tested on: HCT-15; details: HCT-15
[12] = tested on: KM12; test: cells; details: KM12
[13] = tested on: SF-268; details: SF-268
[14] = tested on: SF-295; details: SF-295
[15] = tested on: U251; details: U251, five dose
[16] = tested on: LOX IMVI; details: LOX IMVI, five dose
[17] = tested on: MALME-3M; details: MALME-3M
[18] = tested on: MDA-MB-435; details: MDA-MB-435
[19] = tested on: SK-MEL-28; details: SK-MEL-28
[20] = tested on: SK-MEL-5; details: SK-MEL-5
[21] = Homo sapiens, five dose, read-out: LC50 (the source's name)

Structure (SMILES): O=c1c2cc(Cl)ccc2sc2c(NCc3ccccc3)nc3ccccc3c12 [Compound N25, 6-(Benzylamino)-10-chloro-12H-thiochromeno[2,3-c]quinolin-12-one]
- Growth percent ([1]; 10^−5 molar): 102.34%
- TGI ([1]; five dose): >100 µM
- GI50 ([1]; Homo sapiens, five dose): > 100 µM
- CC50 [1, 21]: > 100 µM
- GI50 ([2]; Homo sapiens, K562, five dose): > 100 µM
- CC50 ([2]; Homo sapiens, K562, five dose, read-out: LC50 (the source's name)): > 100 µM
- Growth percent ([2]; 10^−5 molar): 90.61%
- TGI ([2]; five dose): >100 µM
- GI50 ([3]; Homo sapiens, five dose): > 100 µM
- CC50 [3, 21]: > 100 µM
- Growth percent ([3]; 10^−5 molar): 92.42%
- TGI ([3]; five dose): >100 µM
- GI50 ([4]; Homo sapiens, five dose): > 100 µM
- CC50 [4, 21]: > 100 µM
- Growth percent ([4]; 10^−5 molar): 88.54%
- TGI ([4]; five dose): >100 µM
- GI50 ([5]; Homo sapiens, five dose): > 100 µM
- LC50 (50% lethal concentration) ([5]; Homo sapiens, five dose): > 100 µM
- Growth percent ([5]; 10^−5 molar): 85.46%
- TGI ([5]; five dose): >100 µM
- Growth percent ([6]; 10^−5 molar): 68.33%
- TGI ([6]; five dose): >100 µM
- GI50 ([6]; Homo sapiens, five dose): 14.4 µM
- LC50 ([6]; Homo sapiens, five dose): > 100 µM
- GI50 ([7]; Homo sapiens, five dose): 1.84 µM
- LC50 (concentration giving 50% net cell kill) ([7]; Homo sapiens, five dose): > 100 µM
- Growth percent ([7]; 10^−5 molar): 79.35%
- GI50 ([8]; Homo sapiens, five dose): 15.2 µM
- LC50 (lethal concentration 50%) ([8]; Homo sapiens, five dose): > 100 µM
- Growth percent ([8]; 10^−5 molar): 74.37%
- TGI ([8]; five dose): >100 µM
- GI50 ([9]; Homo sapiens, five dose): 25.3 µM
- LC50 (concentration causing 50% net cell kill) ([9]; Homo sapiens, five dose): > 100 µM
- Growth percent ([9]; 10^−5 molar): 75.71%
- TGI ([9]; five dose): >100 µM
- Growth percent ([10]; 10^−5 molar): 66.87%
- TGI ([10]; five dose): >100 µM
- GI50 ([10]; Homo sapiens, five dose): 5.59 µM
- LC50 (concentration killing 50% of cells) ([10]; Homo sapiens, five dose): > 100 µM
- Growth percent ([11]; 10^−5 molar): 71.76%
- TGI ([11]; five dose): >100 µM
- GI50 ([11]; Homo sapiens, five dose): 8.75 µM
- LC50 ([11]; Homo sapiens, five dose): > 100 µM
- GI50 ([12]; Homo sapiens, five dose): 48.3 µM
- LC50 ([12]; Homo sapiens, five dose): > 100 µM
- Growth percent ([12]; 10^−5 molar): 80.34%
- TGI ([12]; five dose): >100 µM
- GI50 ([13]; Homo sapiens, five dose): 13.8 µM
- CC50 [13, 21]: > 100 µM
- Growth percent ([13]; 10^−5 molar): 73.68%
- TGI ([13]; five dose): >100 µM
- GI50 ([14]; Homo sapiens, five dose): 3.5 µM
- LC50 ([14]; Homo sapiens, five dose): > 100 µM
- Growth percent ([14]; 10^−5 molar): 74.33%
- TGI ([14]; five dose): 16.50 µM
- GI50 ([15]; Homo sapiens, U-251): 4.41 µM
- LC50 ([15]; Homo sapiens, U-251): > 100 µM
- TGI [15]: 25.10 µM
- GI50 ([16]; Homo sapiens): > 100 µM
- LC50 ([16]; Homo sapiens): > 100 µM
- TGI [16]: >100 µM
- GI50 ([17]; Homo sapiens, five dose): > 100 µM
- LC50 ([17]; Homo sapiens, five dose): > 100 µM
- Growth percent ([17]; 10^−5 molar): 77.59%
- TGI ([17]; five dose): >100 µM
- GI50 ([18]; Homo sapiens, five dose): > 100 µM
- CC50 [18, 21]: > 100 µM
- Growth percent ([18]; 10^−5 molar): 89.58%
- TGI ([18]; five dose): >100 µM
- LC50 ([19]; Homo sapiens, five dose): > 100 µM
- Growth percent ([19]; 10^−5 molar): 84.20%
- TGI ([19]; five dose): >100 µM
- GI50 ([20]; Homo sapiens, five dose): 4.23 µM
- LC50 ([20]; Homo sapiens, five dose): > 100 µM
- Growth percent ([20]; 10^−5 molar): 92.81%
